Test results published in patent US6838462B2, “Insecticidal azoles” (Bayer CropScience LP, priority 2001, dated 2005).

Key:
Type in all cases: in vivo
[1] = test system: Adults of Ctenocephalides felis, strain "Georgi"; experiment: Test with cat fleas / oral uptake; conditions: 24 h, read-out: % action (mortality of larvae)
Method: Test with Cat Fleas/Oral Uptake
Test animals: Adults of Crenocephalides felis
Solvent: Dimethyl sulphoxide (DMSO)
To produce a suitable preparation, a suitable solution of active compound is prepared from 20 mg of active compound and 1 ml of DMSO. 20 μl of this formulation are added to 4 ml of citrated cattle blood and stirred.
20 unfed adult fleas (Ctenocephalides felis, strain “Georgi”) are placed into a chamber (Ø 5 cm) whose top and bottom are closed with gauze. A metal cylinder whose underside is covered with parafilm is placed onto the chamber. The cylinder contains the 4 ml of blood/active compound formulation which can be taken up by the fleas through the parafilm membrane. Whereas the blood is warmed to 37° C., the temperature in the area of the flea chambers is adjusted to 25° C. Controls are mixed with the same volume of DMSO, without addition of a compound. The determinations are carried out triplicate.
After 24 h, the mortality in % is determined.
Compounds which effect an at least 25% kill of the fleas within 24 h are judged to be effective.

[2] = test system: Third larval stages of Periplanela americana; experiment: Test with cockroaches - dip treatment; conditions: dip treatment 60 seconds, after 7 days, 100% = all cockroach larvae killed
Method: Test with Cockroaches—Dip Treatment
Test animals: Third larval stages of Periplanela americana
(§1) Solvent: Dimethyl sulphoxide
(§2) 20 mg of active compound are dissolved in one ml of dimethyl sulphoxide. To prepare a suitable formulation, the solution of active compound is diluted with water to the particular concentration desired.
[…] of this preparation of active compound are pipetted into tubes (Ø 1.5 cm, H 10 cm). 4 cockroach larvae are anaesthetized with CO2 and transferred into a tube (Ø 1.2 cm, H 9 cm) with 3 holes (bottom and 5 cm below the upper rim). […] The tube is dipped into the preparation of active compound for 60 seconds, with all cockroach larvae being wetted completely. After the liquid has run off, the cockroach larvae are transferred to filter discs in PP dishes (Ø 9.7 cm. H 8 cm).
After 2 and 24 hours and after 7 days, the activity of the preparation of active compound is determined. 100% means that all cockroach larvae have been killed; 0% means that none of the cockroach larvae have been killed.

[3] = test system: Lucilia cuprina larvae; experiment: Blowfly larvae test / development-inhibitory action; conditions: 48 h, read-out: % action (mortality of larvae)
Method: Blowfly Larvae Test/Development-Inhibitory Action
Test animals: Lucilia cuprina larvae
as §1, §2
About 20 Lucilia cuprina larvae are introduced into a test tube which contains about 1 cm^3 of horsemeat and 0.5 ml of the preparation of active compound to be tested. The activity of the preparation of active compound is determined after 48 hours as the mortality of the larvae in %.
The test tubes are then transferred into a beaker whose bottom is covered with sand. After a further 12 days, the test tubes are removed and the pupae and flies are counted. The development-inhibitory action is stated as inhibition of hatching in % (ratio of pupae to flies that have hatched) after 1.5 times the development period of an untreated control.

Compound: Cc1s/c(=N\C#N)n2c1N(Cc1ccc(Cl)nc1)CC2 [Compound I-1, 1-[6-Chloro-3-pyridylmethyl]-5-cyanoimino-7-methyl-4.5-dihydro[1,3]diazolano-[1,2-c][1,3]thiazoline]
- mortality at 100 ppm [1]: 30%
- % action (7 d) ([2]; 100 ppm): 100%
- % action (7 d) ([2]; 300 ppm): 100%
- % action (7 d) ([2]; 1000 ppm): 100%
- mortality at 100 ppm [3]: 100%
- mortality at 300 ppm [3]: 100%
- mortality at 1000 ppm [3]: 100%
